What was measured:
SYK(KD)-NL or NL-SYK(KD) = biological target: T1, SYK(KD)-NL or NL-SYK(KD) (Homo sapiens, UniProt P43405); assay: NanoBRET tracer optimization with SYK kinase domain only constructs; type: cell-based; conditions: with or without digitonin, N- or C-terminal NL
T1 construct: N- and C-terminally-tagged NL SYK kinase domain constructs lacking the tandem SH2 domains were prepared; expressed in transfected cells; host or cells: HEK293
Procedure: HEK293 cells were transfected with constructs of SYK (WT, KD, and GoF variants) tagged with NL on the N- or C-terminus as previously described ([Wells et al., 2021]). Constructs for NanoBRET measurements of SYK(WT) (NL-SYK(WT) and SYK(WT)-NL) and SYK GoF variants (SYK(S550Y)-NL, SYK(S550F)-NL, SYK(P342T)-NL, SYK(M450I)-NL, and SYK(A353T)-NL) were kindly provided by Promega. NL orientations used in the respective assays are indicated. Cells were plated in 96-well tissue culture-treated plates (Corning, #3917) at a cell density of 2 × 10^5 cells/mL, with a total volume of 100 μL per well in DMEM +10% FBS. After 16 h, the media was aspirated from the plate and replaced with room temperature Opti-MEM without phenol red (Gibco, #11058021), 100 μL in no tracer wells; 95 μL in tracer only wells; 90 μL in no tracer wells and with digitonin treated plates, 90 μL in no tracer wells; 85 μL in tracer only wells; 80 μL in no tracer wells. Plates were incubated for 25 min at room temperature if digitonin was added or for 2 h at 37°C in 5% CO2 for the intact cell NanoBRET assay. NanoBRET plates were read after the addition of 50 μL of a stock solution (3X) containing NanoBRET NanoGlo substrate (Promega, #N2161), extracellular NanoLuc inhibitor (Promega, #N2161) when reading assay plates performed in intact live cells, and Opti-MEM without phenol red (Gibco, #11058021). For intact live cells in a 96-well plate, the 3X stock solution was prepared with 30 μL of NanoBRET NanoGlo substrate, 10 μL of extracellular NanoLuc inhibitor, and 4,960 μL of Opti-MEM without phenol red. For digitonin permeabilized live cells in a 96-well plate, the 3X stock solution was prepared with 30 μL of NanoBRET NanoGlo substrate and 4,970 μL of Opti-MEM without phenol red. Raw milliBRET units (mBU) were read on a GloMax Discover system (Promega) with a donor emission wavelength of 450 nm and an acceptor emission wavelength of 600 nm. mBU were calculated by dividing the acceptor emission values (600 nm) by the donor emission values (450 nm). For NanoBRET studies with SYK, background corrected mBU were calculated by subtracting the no tracer wells from the tracer-containing wells and multiplying by 1,000. Where the results are reported as a BRET fold change, this is the BRET ratio for the vehicle-treated sample divided by BRET for the inhibitor-treated sample.
HEK293 cells were transfected with constructs of SYK(WT) or SYK(KD) tagged with NL on the C- or N-terminus and SYK GoF variants tagged with NL on the C-terminus. Tracer 8 (20X) was prepared from a 400 μM stock solution in DMSO with tracer dilution buffer (Promega, #N291B) and 20% DMSO, with a final assay plate concentration of 1% DMSO. […]

SYK = biological target: T2, SYK (Homo sapiens, UniProt P43405); assay: Eurofins DiscoverX SYK enzymatic radiometric assay; type: biochemical; conditions: for IC50: Km value for ATP, 9-pt dose-response
T2 construct: purchased Eurofins DiscoverX (contract assay service)
Excerpt: Eurofins kinase enzymatic radiometric assays were executed at the Km value for ATP in dose–response (9-pt curve) format for SYK, included in Table 1 as enzymatic IC50 values.

SYK(WT)-NL = biological target: T3, SYK(WT)-NL (Homo sapiens, UniProt P43405); assay: NanoBRET assay in digitonin permeabilized HEK293 cells, SYK(WT)-NL; type: cell-based; conditions: C-terminal NL fusion, tracer 0.5, 1, 2 μM
T3 construct: SYK tracers enable BRET with full-length SYK(WT) after digitonin permeabilization; host or cells: HEK293
Procedure: We performed NanoBRET tracer optimization to determine if the SYK tracers could effectively generate a BRET signal. […] To enable the NanoBRET assay using tracer 8 with cells permeabilized by digitonin, a tracer dose–response study was performed for each SYK(GoF) variant and SYK(WT) (Figure 3A), followed by tracer titration experiments (Figure 3B; Supplementary Figure S3). […] Initially, we determined the EC50 of tracer 8 for each SYK(GoF) variant and SYK(WT). […] Plates were incubated for 25 min at room temperature if digitonin was added or for 2 h at 37°C in 5% CO2 for the intact cell NanoBRET assay. […] For intact live cells in a 96-well plate, the 3X stock solution was prepared with 30 μL of NanoBRET NanoGlo substrate, 10 μL of extracellular NanoLuc inhibitor, and 4,960 μL of Opti-MEM without phenol red. For digitonin permeabilized live cells in a 96-well plate, the 3X stock solution was prepared with 30 μL of NanoBRET NanoGlo substrate and 4,970 μL of Opti-MEM without phenol red. Raw milliBRET units (mBU) were read on a GloMax Discover system (Promega) with a donor emission wavelength of 450 nm and an acceptor emission wavelength of 600 nm. mBU were calculated by dividing the acceptor emission values (600 nm) by the donor emission values (450 nm). For NanoBRET studies with SYK, background corrected mBU were calculated by subtracting the no tracer wells from the tracer-containing wells and multiplying by 1,000.
HEK293 cells were transfected with constructs of SYK(WT) or SYK(KD) tagged with NL on the C- or N-terminus and SYK GoF variants tagged with NL on the C-terminus. Tracer 8 (20X) was prepared from a 400 μM stock solution in DMSO with tracer dilution buffer (Promega, #N291B) and 20% DMSO, with a final assay plate concentration of 1% DMSO. 5 μL of 8 (20X) was added to each well, with exception of the no tracer control wells, with final plate concentrations of 0.5, 1, and 2 μM. 10 μL of digitonin (Fisher, 10X, 500 μg/mL) was added to specific wells to permeabilize the cells. The 10X digitonin stock was prepared by diluting a 40X DMSO solution of digitonin with room temperature Opti-MEM without phenol red, for a final assay plate concentration of 1% DMSO. SYK inhibitor stock solutions of MRL-SYKi (10X) were prepared from 10 mM DMSO stock solutions with room temperature Opti-MEM without phenol red, for final assay plate concentrations of 10 μM. Plates were incubated for 25 min at room temperature if digitonin was added or for 2 h at 37°C in 5% CO2 for the intact cell NanoBRET assay. Two technical replicates were plotted in a bar chart with the standard deviation represented as error bars on Graphpad Prism.

[1] = tested on: FGR, MLK1, YES, FLT3, PAK5, LYN, SRC, and LCK; conditions: ref Coffey et al., 2012, Spurgeon et al., 2013, cited from earlier work

Row | BRET signal (SYK(KD)-NL or NL-SYK(KD)) | IC50 (SYK) | BRET signal (background subtracted) (SYK(WT)-NL) | decrease in potency compared to the parent inhibitor MRL-SYKi (SYK; ratio of enzymatic IC50) | SMILES | inhibition of eight kinases ([1]; at 300 nM) | IC50 ([1]; dose-response, read-out: enzymatic IC50 of the closest off-target) | closest off-target less potent compared to SYK [1]
1 | did not generate a BRET signal | 2.4 µM | 4 mBU | – | O=C(CCc1ccc2n1[B-](F)(F)[N+]1=C(c3ccc[nH]3)C=CC1=C2)NCCOCCOCCOCCC(=O)N1CCN(c2ccc(Nc3nc(-c4ccc5cn[nH]c5c4)cn4ccnc34)cc2)CC1 [Tracer 2] | – | – | –
2 | – | 0.097 µM | – | – | Cn1ncc2ccc(-c3cn4ccnc4c(Nc4ccc(N5CCNCC5)cc4)n3)cc21 [Tracer 3] | – | – | –
3 | did not generate a BRET signal | > 10 µM | did not generate a BRET signal | – | Cn1ncc2ccc(-c3cn4ccnc4c(Nc4ccc(N5CCN(C(=O)CCc6ccc7n6[B-](F)(F)[N+]6=C(c8ccc[nH]8)C=CC6=C7)CC5)cc4)n3)cc21 [Tracer 4] | – | – | –
4 | did not generate a BRET signal | 1.1 µM | > 10 mBU | – | CC1(C)Oc2ccc(Nc3nc(Nc4cccc(OCC(=O)NCCOCCOCCOCCNC(=O)CCc5ccc6n5[B-](F)(F)[N+]5=C(c7ccc[nH]7)C=CC5=C6)c4)ncc3F)nc2NC1=O [Tracer 5] | – | – | –

The next lines start with the compound.

Row | SMILES | BRET signal (SYK(KD)-NL or NL-SYK(KD)) | IC50 (SYK) | BRET signal (background subtracted) (SYK(WT)-NL) | decrease in potency compared to the parent inhibitor MRL-SYKi (SYK; ratio of enzymatic IC50) | inhibition of eight kinases ([1]; at 300 nM) | IC50 ([1]; dose-response, read-out: enzymatic IC50 of the closest off-target) | closest off-target less potent compared to SYK [1]
5 | CC1(C)Oc2ccc(Nc3nc(Nc4cccc(OCC(=O)NCCNC(=O)CCc5ccc6n5[B-](F)(F)[N+]5=C(c7ccc[nH]7)C=CC5=C6)c4)ncc3F)nc2NC1=O [Tracer 6] | did not generate a BRET signal | 1.4 µM | > 10 mBU | – | – | – | –
6 | Cc1cc(Nc2nccc(C)n2)cc(-c2cnc([C@@]3(O)CC[C@H](C(=O)NCCOCCOCCOCCNC(=O)CCc4ccc5n4[B-](F)(F)[N+]4=C(c6ccc[nH]6)C=CC4=C5)C(C)(C)C3)s2)c1 [Tracer 7] | – | 0.47 µM | > 10 mBU | 15.6 fold | – | – | –
7 | NC(=O)c1cnc(N[C@@H]2CCCC[C@@H]2N)nc1Nc1cccc(-n2nccn2)c1 [Tracer P505-15] | – | – | – | – | greater than 80% | 0.081 µM | 81 fold
